Data on three compounds can be found in PMC11822212, “High-throughput screening identifies Aurora kinase B as a critical therapeutic target for Merkel cell carcinoma” (Nature Communications, 2025).

The subject of one assay is MCC13 cells (VN-MCC). The assay is described as follows: qHTS cell viability (CellTiter-Glo, 72 h; primary and follow-up small molecule screen). It counts as cell-based, human.
A further assay relates to MCC26 cells (VN-MCC). Described as above. It counts as cell-based, human.
In another assay the test system is UISO cells (VN-MCC). Described as above. It counts as cell-based, human.
A further assay has as its system WAGA cells (VP-MCC). Described as above. It counts as cell-based, human.
The next assay concerns MKL-1 cells (VP-MCC). The assay is described as above. The assay is classed as cell-based, human.
The next assay deals with MKL-2 cells (VP-MCC). Described as above. The assay is classed as cell-based, human.
The next assay relates to HACAT cells. The assay can be described thus: qHTS cell viability (CellTiter-Glo, 72 h; primary screen), control cell line. The assay is classed as cell-based, human.
In a further assay the test system is HEK293T cells. The description is as above. It counts as cell-based, human.
A further assay relates to NIH-3T3 cells. The assay is described as above. The assay is classed as cell-based, mouse.
The next assay concerns CRL-7250 cells. Described as above. The assay is classed as cell-based.
Assay [1] concerns MCC cell lines (WAGA, MKL-1, MKL-2, MCC13, MCC26, UISO). The assay is described as follows: qHTS cell viability, all six MCC cell lines as a group (mean AUC, MCC.avg). It counts as cell-based, human. The following applies: mean AUC of six MCC cell lines.
Assay [2] relates to VP-MCC cell lines (WAGA, MKL-1, MKL-2). The assay is described as follows: qHTS cell viability, VP-MCC cell lines as a group (mean AUC, VP.MCC.avg). The following applies: for VP-MCC_Avg_AUC: mean AUC of VP-MCC cell lines. It counts as cell-based, human.
Assay [3] relates to VN-MCC cell lines (MCC13, MCC26, UISO). The assay can be described thus: qHTS cell viability, VN-MCC cell lines as a group (mean AUC, VN.MCC.avg). It counts as cell-based, human. The note with it: for VN-MCC_Avg_AUC: mean AUC of VN-MCC cell lines.
Assay [4] has as its system control cell lines (HACAT, HEK293T, CRL-7250, NIH-3T3). The assay can be described thus: qHTS cell viability, control cell lines as a group (mean AUC, Control.avg). The following applies: mean AUC of control cell lines. It counts as cell-based.
For assay [5], the system named is six MCC cell lines and four control cell lines. The assay can be described thus: qHTS cell viability, all 10 cell lines screened. It counts as cell-based.
Setting [6] is: MIPE library, 11-point DRC, sheet S2E.
Setting [7] is: area under the dose-response curve, MCC13 cells, AUC<450 = reduced viability.
The mark [8] stands for this setting: area under the dose-response curve, MCC26 cells, AUC<450 = reduced viability.
Setting [9] is: area under the dose-response curve, UISO cells, AUC<450 = reduced viability.
The mark [10] stands for this setting: area under the dose-response curve, WAGA cells, AUC<450 = reduced viability.
[11] abbreviates: area under the dose-response curve, MKL-2 cells, AUC<450 = reduced viability.
The mark [12] stands for this setting: MIPE library, 11-point DRC, control cell line, sheet S2E.
Where [13] appears, read: area under the dose-response curve, HACAT control cells, AUC<450 = reduced viability.
Where [14] appears, read: area under the dose-response curve, HEK293T control cells, AUC<450 = reduced viability.
[15] abbreviates: area under the dose-response curve, NIH3T3 control cells, AUC<450 = reduced viability.
[16] abbreviates: area under the dose-response curve, CRL7250 control cells, AUC<450 = reduced viability.
The mark [17] stands for this setting: NPC library, qHTS dose-response AUC, MCC13.
Where [18] appears, read: NPC library, qHTS dose-response AUC, MCC26.
Where [19] appears, read: NPC library, qHTS dose-response AUC, UISO.
The mark [20] stands for this setting: NPC library, qHTS dose-response AUC, WAGA.
The mark [21] stands for this setting: NPC library, qHTS dose-response AUC, MKL1.
Setting [22] is: NPC library, qHTS dose-response AUC, MKL2.
[23] abbreviates: NPC library, qHTS dose-response AUC, HACAT control.
[24] abbreviates: NPC library, qHTS dose-response AUC, HEK293T control.
Where [25] appears, read: NPC library, qHTS dose-response AUC, NIH3T3 control.
[26] abbreviates: NPC library, qHTS dose-response AUC, CRL7250 control.
The mark [27] stands for this setting: NPC library, therapeutic window: Control avg AUC minus VP-MCC avg AUC.
Setting [28] is: NPC library, therapeutic window: Control avg AUC minus VN-MCC avg AUC.
The mark [29] stands for this setting: NPC library, therapeutic window: Control avg AUC minus MCC avg AUC.

As for `CC(=O)SCC(Cc1ccccc1)C(=O)NCC(=O)OCc1ccccc1` (centres unmarked) [Racecadotril], the MCC13_AUC in the assay with MCC13 cells (VN-MCC) (setting [6]) was 461.58; in the assay on MCC13 cells (VN-MCC) (setting [7]), 485.077. For the same compound, the results for the MCC26_AUC in the assay on MCC26 cells (VN-MCC) (setting [6]) and in the assay on MCC26 cells (VN-MCC) (setting [8]) were 488.688 and 492.456, respectively. In addition, the UISO_AUC came to 428.805 with UISO cells (VN-MCC) (setting [6]) and 451.995 in the assay with UISO cells (VN-MCC) (setting [9]). Moreover, the WAGA_AUC is 280.978 with WAGA cells (VP-MCC) (setting [6]) and 389.872 with WAGA cells (VP-MCC) (setting [10]). In addition, the MKL1_AUC was 303.479 in the assay on MKL-1 cells (VP-MCC) (setting [6]) and 393.26 in the assay on MKL-1 cells (VP-MCC) (area under the dose-response curve, MKL-1 cells, AUC<450 = reduced viability). The MKL2_AUC came out at 282.974 in the assay with MKL-2 cells (VP-MCC) (setting [6]) and 385.069 with MKL-2 cells (VP-MCC) (setting [11]). Moreover, the HACAT_AUC was 479.748 with HACAT cells (setting [12]) and 454.884 with HACAT cells (setting [13]). Also, the HEK293T_AUC is 456.066 with HEK293T cells (setting [12]) and 472.387 in the assay on HEK293T cells (setting [14]). Moreover, the NIH3T3_AUC in the assay with NIH-3T3 cells (setting [12]) stood at 475.653; with NIH-3T3 cells (setting [15]) it was 480.677. Further, the results for the CRL7250_AUC in the assay on CRL-7250 cells (setting [12]) and in the assay with CRL-7250 cells (setting [16]) were 474.01 and 474.054, respectively. Also, the MCC_Avg_AUC in [1] (MIPE library, sheet S2E) is 374.417. In addition, the Control-VP-MCC in assay [2] (MIPE library, Control AUC minus VP-MCC AUC (therapeutic window), sheet S2E) was found to be 182.226. This compound returned a VP-MCC_Avg_AUC in [2] (MIPE library, sheet S2E) of 289.144. In addition, the Control-VN-MCC in assay [3] (MIPE library, Control AUC minus VN-MCC AUC (therapeutic window), sheet S2E) came out at 11.6784. The same compound came in with a VN-MCC_Avg_AUC in assay [3] (MIPE library, sheet S2E) of 459.691. The compound further yielded a Control_Avg_AUC in assay [4] (MIPE library, sheet S2E) of 471.369. The same compound returned a Control-MCC in assay [5] (MIPE library, Control AUC minus MCC AUC (therapeutic window), sheet S2E) of 96.952.
In the case of `CCCC(=O)OC[C@@H](OC(=O)CCC)[C@@H](OC(=O)CCC)[C@H](Cn1c2nc(=O)[nH]c(=O)c-2nc2cc(C)c(C)cc21)OC(=O)CCC` [Riboflavin tetrabutyrate], the MCC13_AUC in the assay with MCC13 cells (VN-MCC) (setting [17]) and in the assay with MCC13 cells (VN-MCC) (setting [7]) was 481.481 throughout. For the same compound, the MCC26_AUC in the assay on MCC26 cells (VN-MCC) (setting [18]) and with MCC26 cells (VN-MCC) (setting [8]) was 500.723 in each case. Further, the UISO_AUC in the assay with UISO cells (VN-MCC) (setting [19]) and in the assay with UISO cells (VN-MCC) (setting [9]) was 492.96 each time. Also, the WAGA_AUC with WAGA cells (VP-MCC) (setting [20]) and in the assay with WAGA cells (VP-MCC) (setting [10]) was 418.091 each time. Moreover, the MKL1_AUC in the assay with MKL-1 cells (VP-MCC) (setting [21]) and in the assay with MKL-1 cells (VP-MCC) ({}) was 416.714 each time. For the same compound, the MKL2_AUC in the assay on MKL-2 cells (VP-MCC) (setting [22]) and in the assay on MKL-2 cells (VP-MCC) (setting [11]) was 430.163 each time. Besides, the HACAT_AUC in the assay on HACAT cells (setting [23]) and in the assay with HACAT cells (setting [13]) was 497.126 throughout. The HEK293T_AUC in the assay with HEK293T cells (setting [24]) and in the assay on HEK293T cells (setting [14]) was 450.178 each time. Further, the NIH3T3_AUC in the assay on NIH-3T3 cells (setting [25]) and in the assay on NIH-3T3 cells (setting [15]) was 473.017 throughout. Also, the CRL7250_AUC with CRL-7250 cells (setting [26]) and in the assay with CRL-7250 cells (setting [16]) was 470.473 in each case. For the same compound, the MCC_Avg_AUC in [1] (NPC library) is recorded as 456.689. In [2] (NPC library), this compound gave a VP-MCC_Avg_AUC of 421.656. In [2] (setting [27]), the Control-VP-MCC is on record as 51.0422. Moreover, in assay [3] (NPC library), the VN-MCC_Avg_AUC came out at 491.721. Also, in assay [3] (setting [28]), the Control-VN-MCC was -19.0227. The compound further yielded a Control_Avg_AUC in assay [4] (NPC library) of 472.698. The same compound registered a Control-MCC in assay [5] (setting [29]) of 16.0097.
`C[C@@H]1CN(CCCn2c3ccccc3c3ccccc32)C[C@H](C)N1.Cl.Cl` [Rimcazole dihydrochloride]: the MCC13_AUC in the assay with MCC13 cells (VN-MCC) (setting [17]) is 472.84. The MCC26_AUC in the assay with MCC26 cells (VN-MCC) (setting [18]) amounted to 457.379. The UISO_AUC with UISO cells (VN-MCC) (setting [19]) stood at 420.46. In addition, in the assay on WAGA cells (VP-MCC) (setting [20]), the WAGA_AUC is 396.152. The MKL1_AUC in the assay with MKL-1 cells (VP-MCC) (setting [21]) was determined as 392.844. In addition, the MKL2_AUC with MKL-2 cells (VP-MCC) (setting [22]) was 350.893. The compound further showed an HACAT_AUC in the assay with HACAT cells (setting [23]) of 421.634. The same compound came in with an HEK293T_AUC in the assay with HEK293T cells (setting [24]) of 453.163. In the assay on NIH-3T3 cells (setting [25]), this compound had an NIH3T3_AUC of 464.02. Also, in the assay with CRL-7250 cells (setting [26]), the CRL7250_AUC came to 463.168. Also, the MCC_Avg_AUC in assay [1] (NPC library) is on record as 415.095. This compound showed a VP-MCC_Avg_AUC in [2] (NPC library) of 379.963. In addition, the Control-VP-MCC in assay [2] (setting [27]) is recorded as 70.5333. For the same compound, the VN-MCC_Avg_AUC in assay [3] (NPC library) is on record as 450.226. Further, the Control-VN-MCC in assay [3] (setting [28]) amounted to 0.27. Moreover, the Control_Avg_AUC in assay [4] (NPC library) is 450.496. For the same compound, in assay [5] (setting [29]), the Control-MCC is listed as 35.4016.
